The values below are quoted from earlier work in EP1239029B1, “Cleaning compositions” (UNILEVER PLC, priority 2001, dated 2002).

Like-named read-outs stand apart in the source and are kept apart here.

Where [1] appears, read: other common materials, by contrast, at 20°C.

As for `O=BO[O-].[Na+]` [Sodium perborate anhydrous], under setting [1], the “Water Solubility (g/100g)” value is given as 3.7 g/100g.

For the compound `O=P(O)(O)OP(=O)(O)OP(=O)(O)O` [Sodium tripolyphosphate anhydrous], the “Water Solubility (g/100g)” value under setting [1] is given as 15 g/100g.

`NC(N)=O` [Urea]: the “Water Solubility (g/100g)” value (highly water-soluble materials, grams of solid to form a saturated solution in 100 grams of water at 20°C) was above 100 g/100g.
